Source: patent US20260027096A1, “PHD INHIBITORS” (Oxford University Innovation Limited, priority 2023, published 2026)

Columns and labels:
[1] = tested on: human multiple myeloma cell lines; experiment: Apoptosis of multiple myeloma cell lines; format: cell-based; details: 50 μM, versus the control
Method: Apoptosis of multiple human MM cell lines derived from different patients (AWO^WT, H292, KMS12, RPMI, U266 and MM.1S) treated with vehicle control, 50 μM Daprodustat (2). Data represent mean±SEM; * p<0.05; ** p<0.01, *** p<0.001.
Viable cells were counted by trypan blue exclusion at the indicated time points. To analyse cells undergoing apoptosis, cells were suspended in binding buffer containing PE-conjugated Annexin-V or FITC-conjugated Annexin-V, and either PI or DAPI.

[2] = tested on: THP-1 cells in NBSGW recipient mice; experiment: THP-1 xenotransplantation in NBSGW mice; format: in vivo; details: 30 mg/kg i.p. twice daily for 21 days
Excerpt: (§1) (A) 100,000 THP-1 cells were transplanted into NBSGW recipient mice. […] (B-C) Percentage of human CD45+CD33+ and human CD45+CD14+ cells in the BM and spleen, respectively (n=4-5). (D) 100,000 OCI-AML3 cells were transplanted into NBSGW recipient mice. […] (E) Percentage of human CD45+CD33+CD14+ cells in the liver, BM and PB, respectively (n=3-7). (F) 2,000 LSK cells from iMLL-AF9;Control mice were sorted and transplanted into irradiated recipient mice. […] (H) LDA in secondary recipients transplanted with indicated doses of CD45.2+BM cells from primary recipients (n=9-10 per dose). (I) Plot showing Poisson statistical analysis. Circles represent the percentages of negative mice for each cell dose, triangles represent any data values with zero negative responses. Solid lines indicate the best-fit linear model, and dotted lines represent 95% CIs. LSC frequencies were calculated using the ELDA software 121. (J) Steady-state analyses of 8-to 10-week-old C57B16 mice treated with IOX5 or vehicle control 2× daily via i.p. injection for 14 days (n=5-7). (K) PB counts (n=6). (L) Total BM cellularity (n=5-9). (M) Total numbers of HSC, MPP, HPC-1 and HPC-2 populations (n=5-7). Data represent mean±SEM; * p<0.05; ** p<0.01; *** p<0.001; **** p<0.0001.
100,000 THP-1 cells, 100,000 OCI-AM3 cells or 100,000 MV411 cells (for combination experiments) were tail vein injected into non-irradiated 10-to 12-week-old mixed gender NBSGW mice and began drug treatment 14 days after transplantation. […] Mice were culled 5 weeks after transplantation.
Next, it was examined whether IOX (68, example 46)5 has a therapeutic impact on MLL-AF9-independent AML. […] Therefore, IOX5 (68, example 46) compromises both MLL-rearranged and non-MLL AML in vivo.

[3] = tested on: HIF-2α in MOLM13, OCI-AML3, MV411 and THP-1 cells; experiment: Western blot of HIF-2α in human AML cell lines; format: cell-based; details: 48 hrs
Method: Equipped with currently available PHD inhibitors and newly generated IOX5 (68, example 46), the impact of pharmacological PHD inhibition on AML cells was assessed. […] Thus, while PHD inhibition consistently stabilises HIF-1α protein across all tested AML cell lines, HIF-2α stabilisation is variable and cell line-specific.

[4] = tested on: Meis1/Hoxa9-transformed AML cells lacking both Hif1α and Hif2α and control cells; experiment: Proliferation of control and Hif1α/Hif2α-deficient Meis1/Hoxa9 AML cells; format: cell-based, mouse; details: 50 μM
Excerpt: To investigate whether HIF-α mediates the anti-leukaemic effects of PHD inhibition, Meis1/Hoxa9-transformed AML cells lacking both Hif1α and Hif2α and control cells were employed (Vukovic et al., 2015).

iMLL-AF9 AML cells = experiment: RNA-seq analysis of iMLL-AF9 AML cells; format: cell-based, mouse
Method: Total RNA was extracted from 500,000 leukaemic cells using RNeasy Plus Universal Mini Kit (QIAGEN, Cat. No. 73404) following the manufacture's protocol. The RNA integrity number (RIN) was determined by High Sensitivity RNA Screen Tape analysis (Agilent, Cat. No. 5067) and all RIN was >8. High sensitivity Libraries for RNA-seq were prepared from 500 ng of total RNA using the NEBNext® Ultra™ II Directional RNA Library Prep Kit for Illumina® (NEB, Cat. No. E7760) with NEBNext Poly(A) mRNA Magnetic Isolation Module (NEB, Cat. No. E7490) following the manufacture's protocol. Nine cycles of PCR were performed to amplify libraries and the pooled library was sequenced on illumina NextSeq 500 with 85 bp single-end mode at EMBL GeneCore facility.
For analysis of differentially expressed genes, adapters were trimmed with cutadapt (version 1.18) using options: -a […]-m 50, and processed reads were mapped to GRCm38 genome_tran (release 84) with HISAT2 (version 2.2.1 (Nature Methods volume 12, pages 357-360 (2015), https://www.nature.com/nmeth)) using following option: —qc-filter. Mapped reads per gene were counted with htseq-count (HTSeq version 2.0.1 (Bioinformatics, Volume 38, Issue 10, 15 May 2022, Pages 2943-2945)) providing GTF file and differentially expressed genes were analysed using DESeq2 (version 1.30.1). […]

[5] = tested on: OCI-AML3 cells in NBSGW recipient mice; experiment: OCI-AML3 xenotransplantation in NBSGW mice; format: in vivo, mouse; details: i.p. twice daily for 21 days
Excerpt: as §1, with “p<0.0001. […]” for “p<0.0001.”

[6] = Steady-state haematopoiesis analyses in C57B16 mice; format: in vivo, mouse; details: 30 mg/kg i.p. twice daily for 14 days
Method: For steady-state analyses, 8-to 10-week-old mixed gender C57B16 mice were injected intraperitoneally twice daily for 14 days with 30 mg/kg IOX5 or vehicle control. Mice were bled before and after treatment, and culled 12 hrs after the final dosing.
Given that Dap has been deemed safe in murine and human studies^37,72,78, the impact of IOX5 (68, example 46) on normal hematopoiesis was then examined.

[7] = tested on: BNIP3 protein in THP-1 cells

| Compound | apoptosis [1] | leukaemic burden [2] | tolerability of treatment [2] | HIF-2α protein level (western blot) ([3]; MOLM13 and MV411 cells) | HIF-2α protein level (western blot) ([3]; OCI-AML3 and THP-1 cells) | proliferation of control vs Hif1α/Hif2α-deficient cells [4] | gene set enrichment analysis (GSEA) of deregulated genes (iMLL-AF9 AML cells; 50 μM vs control) | BNIP3 transcript expression (iMLL-AF9 AML cells; murine cells) | leukaemic burden [5] | HSPC compartment [6] | differentiated PB, BM or spleen compartments [6] | erythropoiesis [6] | BNIP3 protein (western blot) [7] |
| --- | --- | --- | --- | --- | --- | --- | --- | --- | --- | --- | --- | --- | --- |
| O=C(O)CNC(=O)c1c(O)n(C2CCCCC2)c(=O)n(C2CCCCC2)c1=O [Daprodustat, daprodustat, reference compound] | significant apoptosis | significantly reduced leukaemic burden | well tolerated | – | – | – | – | – | – | – | – | – | – |
| O=C(NCC1CCC(C(F)(F)F)CC1)c1c[nH]c(-n2cccn2)cc1=O (centres unmarked) [IOX5] | – | significantly reduced leukaemic burden | – | did not induce any HIF-2α stabilisation | stabilised HIF-2α protein levels | control AML cells manifest substantially reduced proliferation, while Hif½αDKO cells are refractory | significant up-regulation of hypoxia signature, HIF-1 signalling, and activation of HIF-inducible pathways | significantly upregulated | significantly reduced leukaemic burden | no significant defects in the HSPC compartment | no detrimental impact on the differentiated PB, BM or spleen compartments | enhanced erythropoiesis | strongly upregulated BNIP3 protein |
